Patent US20130142831A1, “COMPOUNDS FOR INFLAMMATION AND IMMUNE-RELATED USES” (Synta Pharmaceuticals Corp., priority 2004, published 2013)
Where a name gives a salt, the structure may show the parent alone.

Legend:
Format in all cases: cell-based
IL-2 production = experiment: Inhibition of IL-2 production in PHA-activated Jurkat cells; conditions: Homo sapiens, PHA 2.5 μg/mL, 20 hours, bins given in nM
Procedure, shortened: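 Jurkat cells (0.5 million/well, 1% FBS) were preincubated with compound for 10 min, then stimulated with PHA (2.5 μg/mL final) for 20 h at 37 °C. Supernatant IL-2 was measured by ELISA. IC50 is the concentration giving 50% inhibition of maximal stimulated IL-2 relative to a non-stimulated control.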

INF-γ = experiment: Cytokine inhibition in PHA-stimulated primary human PBMCs: INF-γ; conditions: PBMCs stimulated with PHA; for IC50: Homo sapiens, PBMC, ELISA
Method: (§1) Cytokine production was measured using commercially available human ELISA assay kits (from Cell Science, Inc.) following the manufacturers instructions.

TNF-α = experiment: Cytokine inhibition in PHA-stimulated primary human PBMCs: TNF-α; conditions: PBMCs stimulated with PHA; for IC50: Homo sapiens, PBMC, ELISA
Method: as §1

IL-2 = experiment: Cytokine inhibition in PHA-stimulated primary human PBMCs: IL-2; conditions: PBMCs stimulated with PHA; for IC50: Homo sapiens, PBMC, ELISA
Method: as §1

IL-10 = experiment: Cytokine inhibition in PHA-stimulated primary human PBMCs: IL-10; conditions: PBMC, PBMCs stimulated with PHA, ELISA
Method: as §1

IL-5 = experiment: Cytokine inhibition in PHA-stimulated primary human PBMCs: IL-5; conditions: PBMCs stimulated with PHA; for IC50: Homo sapiens, PBMC, ELISA
Method: as §1

GM-CSF = experiment: Cytokine inhibition in PHA-stimulated primary human PBMCs: GM-CSF; conditions: PBMCs stimulated with PHA; for IC50: Homo sapiens, PBMC, ELISA
Method: as §1

IL-13 = experiment: Cytokine inhibition in PHA-stimulated primary human PBMCs: IL-13; conditions: PBMCs stimulated with PHA; for IC50: Homo sapiens, PBMC, ELISA
Method: as §1

IL-4 = experiment: Cytokine inhibition in PHA-stimulated primary human PBMCs: IL-4; conditions: PBMCs stimulated with PHA; for IC50: Homo sapiens, PBMC, ELISA
Method: as §1

## COc1ccc2c(c1)nc(C(F)(F)F)n2-c1ccc(NC(=O)c2c(F)ccc(F)c2F)cc1 [Compound 1, 2,3,6-Trifluoro-N-[4-(2-trifluoromethyl-5-methoxy-benzoimidazol-1-yl)-phenyl]-benzamide]
IL-2 production
  IC50: < 100 nM
INF-γ
  IC50: 95 nM
TNF-α
  IC50: 424 nM
IL-2
  IC50: 29 nM
IL-10
  IC50: > 1000 nM
IL-5
  IC50: 26 nM
GM-CSF
  IC50: 788 nM
IL-13
  IC50: 73 nM
IL-4
  IC50: 651 nM

## COc1ccc2c(c1)nc(C(F)(F)F)n2-c1ccc(NC(=O)c2ccc3c(c2)OCO3)cc1 [Compound 75, Benzo[1,3]dioxole-5-carboxylic acid {N-[4-(2-trifluoromethyl-5-methoxy-benzoimidazol-1-yl)-phenyl]} amide]
IL-2 production
  IC50: 100 to 500 nM
INF-γ
  Inhibition of INF-γ (in words): potent inhibitors
TNF-α
  Inhibition of TNF-α (in words): potent inhibitors
IL-2
  Inhibition of IL-2 (in words): potent inhibitors
IL-5
  Inhibition of IL-5 (in words): potent inhibitors
GM-CSF
  Inhibition of GM-CSF (in words): potent inhibitors
IL-13
  Inhibition of IL-13 (in words): potent inhibitors
IL-4
  Inhibition of IL-4 (in words): potent inhibitors

## CC(=O)c1ccc2c(c1)nc(C(F)(F)F)n2-c1ccc(NC(=O)c2cccc(F)c2F)cc1 [Compound 133, 2,3-Difluoro-N-[4-(2-trifluoromethyl-5-acetyl-benzoimidazol-1-yl)-phenyl]-benzamide]
IL-2 production
  IC50: 100 to 500 nM

## COc1ccc2c(c1)nc(C(F)(F)F)n2-c1ccc(NCc2c(F)cccc2F)cc1 [Compound 135, 2,6-Difluoro-N-[4-(2-trifluoromethyl-5-methoxy-benzoimidazol-1-yl)-phenyl]-benzylamine, HCl salt]
IL-2 production
  IC50: < 100 nM
INF-γ
  IC50: 29 nM
TNF-α
  IC50: 47 nM
IL-2
  IC50: 3 nM
IL-10
  IC50: 439 nM
IL-5
  IC50: 13 nM
GM-CSF
  IC50: 99 nM
IL-13
  IC50: 25 nM
IL-4
  IC50: 101 nM
